Entries after “also recorded” stand apart in the source; their conditions may differ.
Assays:
DU145 cells [1] = assay: focal adhesion in DU145 cells; assay type: cell-based, human; settings: FIG. 55
PC-3 cells [2] = assay: cell growth (cell viability) in PC-3 cells; assay type: cell-based, human; settings: for inhibition of cell growth (cell viability): PC-3
HT29 cells [3] = assay: cell growth (cell viability) in HT29 cells; assay type: cell-based
PC-3 cells [4] = assay: lamellipodia formation in PC-3 cells; assay type: cell-based, human; settings: 30 μM
DU145 cells [5] = assay: calcium mobilization assay in androgen insensitive prostate cancer DU145 cells; assay type: cell-based, human
HT29 cells [6] = assay: lamellipodia formation in colon cancer HT29 cells; assay type: cell-based; settings: for inhibition of 14:0 LPA-induced lamellipodia formation / inhibition of 1% FBS-induced lamellipodia formation / inhibition of 10% FBS-induced lamellipodia formation: HT29
DU145 cells [7] = assay: cell migration of DU145 cells; assay type: cell-based, human
DU145 cells [8] = assay: cell growth (cell viability) in DU145 cells; assay type: cell-based, human
HT29 cells [9] = assay: calcium mobilization assay in colon cancer HT29 cells; assay type: cell-based; settings: HT29 cells (only express LPA2), FIGS. 21-22
Protocol: The procedures for these calcium mobilization assays are as followed: OVCAR3 cells and PC-3 cells were cultured in RPMI 1640 medium with 10% FBS (fetal bovine serum). HT29 cells were cultured in DMEM (high glucose) medium with 10% FBS. All cells were cultured at about 37° C. in a humidified atmosphere with 5% CO2. After starvation in serum-free medium for about 12-24 hours, cells were harvested and loaded with about 1 μM of Indo-1 AM in serum-free medium for about 45 min at 37° C. Cells were washed in PBS and resuspended at 2×10^6 cells/ml in a [Ca^2+]i assay buffer (Sodium chloride, NaCl, about 140 mM, potassium chloride, KCl, about 2 mM, magnesium chloride, MgCl2, about 1 mM, calcium chloride, CaCl2, about 2 mM, in about 25 mM HEPES buffer at pH 7.4 with about 10 mM of glucose). Cytoplasmic [Ca^2+]i was determined at an excitation wavelength of about 331 nm and an emission wavelength of 410 nm using a fluorescence spectrophotometer (Hitachi, F-4000). Approximately 3×10^6 cells were used for [Ca^2+]l determination in a stirred quartz cuvette kept at about 37° C. OMPT or 18:1 LPA was dissolved in about 0.1% BSA/PBS solution and applied immediately to the cells. To test other LPA derivatives of the invention, cells were exposed to the derivatives for about 3 minutes or for a period of various times in time course related experiments before a LPA agonist, such as 18:1 LPA, OMPT, or other LPAs was applied into the cuvette.
The concentration of calcium mobilization giving the half-maximal response (EC50) was obtained from the concentration-response curve fitted to a sigmoidal logistic equation, with the maximal calcium response set to 100% using the GraphPad Prism. Maximal response value is expressed as mean +/−s.e.m. EC50 value is expressed with 95% confidence.

PC-3 cells [10] = assay: focal adhesion in PC-3 cells; assay type: cell-based, human; settings: FIG. 56
LPA2 receptor = LPA2 receptor (Homo sapiens, UniProt Q9HBW0); assay: HA-Erk1 phosphorylation in HEK 293 T cells transfected with LPA2; assay type: cell-based; parameters: expressed in transfected cells; settings: LPA2 transfected HEK 293 T; 0.01, 0.1, or 1 μM
Source text: (§1) We have also tested kinase activation by the LPA3 receptor subtype using OMPT as a tool. We determined whether activation of the LPA3 receptor by OMPT can be linked to ERK activation (related to MAP kinase signaling pathway) in mammalian cells, HEK 293 T cells, by co-transfecting hemagglutinin (HA)-tagged Erk1 (HA-Erk1) with either a control vector or an expression vector having LPA1, LPA2, or LPA3. […] There is no phosphorylation of HA-Erk1 at lower concentration of LPA or OMPT in the absence of LPA receptors. […] Thus, the data confirmed that OMPT, an LPA derivative, is a selective agonist for LPA3 receptor subtype, capable of inducing MAPK activation.

LPA3 receptor = target: T1, LPA3 receptor (Homo sapiens, UniProt Q9UBY5); assay: HA-Erk1 phosphorylation in HEK 293 T cells transfected with LPA3; assay type: cell-based; parameters: expressed in transfected cells; settings: LPA3 transfected HEK 293 T; 0.01, 0.1, or 1 μM
T1 sequence (Q9UBY5 1-353): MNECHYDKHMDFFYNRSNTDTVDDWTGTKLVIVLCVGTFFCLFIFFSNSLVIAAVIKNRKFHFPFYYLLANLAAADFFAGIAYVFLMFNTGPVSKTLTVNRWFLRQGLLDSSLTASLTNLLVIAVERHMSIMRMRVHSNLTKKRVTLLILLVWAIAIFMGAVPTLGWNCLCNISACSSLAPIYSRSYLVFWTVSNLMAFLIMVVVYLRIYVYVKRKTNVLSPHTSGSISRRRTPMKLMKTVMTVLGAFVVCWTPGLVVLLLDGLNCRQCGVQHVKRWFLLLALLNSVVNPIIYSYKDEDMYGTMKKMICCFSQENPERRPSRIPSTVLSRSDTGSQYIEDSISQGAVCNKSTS
Source text: as §1

LNCaP cells = assay: calcium mobilization in androgen sensitive prostate cancer LNCaP cells; assay type: cell-based
LPA1 receptor = LPA1 receptor (Homo sapiens, UniProt Q92633); assay: HA-Erk1 phosphorylation in HEK 293 T cells transfected with LPA1; assay type: cell-based; parameters: FLAG; expressed in transfected cells; host or cells: HEK 293 T cells; settings: LPA1 transfected HEK 293 T; 0.01, 0.1, or 1 μM
Source text: as §1

interleukin-8 (IL-8) = assay: IL-8 transcription and secretion; assay type: cell-based, human; settings: PC-3 cells

Chain of LPA2 receptor (Q9HBW0 whole entry): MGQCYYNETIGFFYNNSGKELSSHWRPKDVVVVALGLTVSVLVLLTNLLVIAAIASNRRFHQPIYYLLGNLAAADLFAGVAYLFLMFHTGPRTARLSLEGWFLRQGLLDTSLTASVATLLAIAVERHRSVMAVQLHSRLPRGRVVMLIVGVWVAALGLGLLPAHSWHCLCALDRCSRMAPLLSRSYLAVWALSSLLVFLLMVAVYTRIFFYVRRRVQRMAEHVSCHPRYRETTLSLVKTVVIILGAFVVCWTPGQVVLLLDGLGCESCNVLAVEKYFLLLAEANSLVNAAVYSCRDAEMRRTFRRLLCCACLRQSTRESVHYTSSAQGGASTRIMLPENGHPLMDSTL
Chain of LPA1 receptor (Q92633 whole entry): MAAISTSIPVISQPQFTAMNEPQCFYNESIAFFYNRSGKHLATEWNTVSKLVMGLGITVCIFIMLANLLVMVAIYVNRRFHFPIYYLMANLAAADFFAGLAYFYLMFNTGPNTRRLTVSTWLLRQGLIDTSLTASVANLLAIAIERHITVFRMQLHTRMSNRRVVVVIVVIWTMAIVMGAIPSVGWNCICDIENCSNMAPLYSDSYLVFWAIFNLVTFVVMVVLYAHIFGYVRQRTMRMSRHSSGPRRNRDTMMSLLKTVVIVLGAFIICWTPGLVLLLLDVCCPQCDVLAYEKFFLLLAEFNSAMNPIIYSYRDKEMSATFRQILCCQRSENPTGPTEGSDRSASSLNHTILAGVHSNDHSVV

Q: Which results are given for `CCCCCCCCCCCCCCCCCC(=O)OC[C@@H](O)COP(=O)(O)OCC(O)CO` (mixture of isomers) [18:0 LPG, 1-stearoyl-2-hydroxy-sn-glycero-3-[phospho-rac-(1-glycerol)]]?
A: reduction of focal adhesion (DU145 cells [1]): reduce focal adhesion; inhibition of cell growth (cell viability) (PC-3 cells [2]; in the presence of 10 μM of 18:1 LPA, FIGS. 45-47): inhibition of cell growth (cell viability) at high concentrations; inhibition of cell growth (cell viability) (PC-3 cells [2]; without LPA, FIGS. 46-47): inhibition of cell growth (cell viability) at high concentrations; reduction of cell viability / cell growth (PC-3 cells [2]; PC-3 cells): reduced cell viability; inhibition of cell growth (cell viability) (HT29 cells [3]; FBS (1%), FIG. 36): inhibition of cell growth (cell viability) at high concentrations; inhibition of cell growth (cell viability) (HT29 cells [3]; FBS (10%), FIG. 36): but not in the presence of high concentrations of FBS (10%); inhibition of cell growth (cell viability) (HT29 cells [3]; in the presence of 10 μM of 14:0 LPA, FIG. 35): inhibition of cell growth (cell viability) at high concentrations; effect on spontaneously activated lamellipodia (PC-3 cells [4]; PC-3, serum-free, FIGS. 38-40): inhibit spontaneously activated lamellipodia; inhibition of 18:1 LPA-induced lamellipodia formation (PC-3 cells [4]; PC-3, FIGS. 42-44): inhibition of 18:1 LPA-induced LPA2 receptor mediated lamellipodia formation; inhibition of 14:0 LPA-induced calcium mobilization (DU145 cells [5]): inhibited calcium mobilization; inhibition of lamellipodia (HT29 cells [6]; HT29, serum-free medium, 10 and 30 μM, FIGS. 24-25): inhibits lamellipodia in HT29 cells in a concentration dependent manner; inhibition of 14:0 LPA-induced lamellipodia formation (HT29 cells [6]; 10 μM, FIG. 27): inhibition of 14:0 LPA-induced LPA2 receptor mediated lamellipodia formation; inhibition of 1% FBS-induced lamellipodia formation (HT29 cells [6]; 10 μM, FIG. 30): inhibition of 1% FBS-induced LPA2 receptor mediated lamellipodia formation; inhibition of 10% FBS-induced lamellipodia formation (HT29 cells [6]; 10 μM, FIG. 33): no inhibition; inhibition of 14:0 LPA-induced lamellipodia formation (HT29 cells [6]; 30 μM, FIG. 28): inhibition of 14:0 LPA-induced LPA2 receptor mediated lamellipodia formation; inhibition of 1% FBS-induced lamellipodia formation (HT29 cells [6]; 30 μM, FIG. 31): inhibition of 1% FBS-induced LPA2 receptor mediated lamellipodia formation; inhibition of 10% FBS-induced lamellipodia formation (HT29 cells [6]; 30 μM, FIG. 34): no inhibition; reduction of cell migration (DU145 cells [7]): could reduce cell migration; reduction of cell viability / cell growth (DU145 cells [8]): reduced cell viability; inhibition of (18:1) LPA-induced calcium mobilization (HT29 cells [9]): inhibited LPA-induced calcium mobilization; also recorded: effective inhibitors/antagonists; reduction of focal adhesion (PC-3 cells [10]): reduce focal adhesion

Q: For “lysophosphatidic acid [LPA, reference compound]”, which HA-Erk1 phosphorylation (LPA2 receptor) is on record?
A: stimulates phosphorylation of HA-Erk1 in a dose-dependent manner

Q: And the HA-Erk1 phosphorylation (LPA3 receptor)?
A: stimulates phosphorylation of HA-Erk1 in a dose-dependent manner

Q: And the calcium mobilization (LNCaP cells)?
A: does not induce the increase of intracellular calcium concentration

Q: And the HA-Erk1 phosphorylation (LPA1 receptor)?
A: stimulates phosphorylation of HA-Erk1 in a dose-dependent manner

Q: And the “IL-8 transcription and secretion” value (interleukin-8 (IL-8))?
A: increases interleukin-8 (IL-8) transcription and stimulates IL-8 secretion

Source: US20080071116A1, “Modulators of Lysophosphatidic Acid (Lpa) Signaling and the Use Thereof” (THE BOARD OF REGENTS OF THE UNIVERSITY OF TEXAS SYSTEM, priority 2004, published 2008)
